Earlier results as cited in patent US7718389B2, “Stabilizing composition and stabilizing method of coelenterazine solution for high-throughput measurement of luciferase activity” (National Institute of Advanced Industrial Science and …, priority 2006, dated 2010).

Settings: background statement

In the case of `Oc1ccc(Cc2nc3c(Cc4ccccc4)nc(-c4ccc(O)cc4)cn3c2O)cc1` [coelenterazine], the “pKa value of proton of an imidazopyrazinone ring” value is listed as “around 7.4”.
